# Test results published in patent publication US20230414657A1, “Novel compositions for neutralizing toxic effects of hydrogen peroxide in living cells or tissues” (Dzala LLC, priority 2020, published 2023).
# Experiments:
# [1] = system: C. elegans; type: in vivo; conditions: 100 mM H2O2 plus supplement (10 mM GA, 100 μM glycine or 500 μM L-serine)
# Method: Mitochondrial staining was performed as described previously^3,4. Briefly, L1 worms were grown on plate or in liquid culture for 2-3 days at 15° C. […] Next, the excess dye was washed off with M9 buffer and worms were incubated in 100 μl M9 for 30 min to eliminate the excess dye in the gut. Finally, worms were paralyzed with 0.5 mM Levamizol (Sigma-Aldrich), placed on slides covered with a thin layer of 2% agarose on top of which the coverslip (22×22 mm, Menzel-Glaser no. 1) was fixed using nail polish. We used a Zeiss LSM 700 inverted laser scanning confocal microscope and a Zeiss LCI Plan-Neofluar 63×/1.3 ImmCorr DIC M27 objective to image mitochondria (Zeiss, Germany). MitoTracker Red CMXRos was excited at 555 nm and the emission above 560 nm was acquired by the second PMT. Optical sections at 0.1×0.1×0.5 μm^3 x-y-z resolution were collected in […]. Final images were adjusted for intensity and merged in Fiji. No non-linear adjustments were made.
# [2] = system: C. elegans; test: Growth rate / worm size; type: in vivo; conditions: 100 mM H2O2 plus supplement (10 mM GA, 100 μM glycine or 500 μM L-serine)
# Method: Synchronized L1 worms were incubated at 15° C. on plates or in liquid culture and exposed to different conditions as indicated. Single worms were selected randomly from the plates or aliquots were taken from the liquid cultures and added to NGM plates for immediate visualization. 25 worms per treatment were measured at 24-48 hr intervals and all growth curves were done four times.
# [3] = system: C. elegans; test: Quantification of glutathione (GSH/GSSG-Glo); type: in vivo
# Method: Sample preparation was performed as described previously with some modifications^6. From each condition 10,000 synchronized animals were harvested and washed 3 times with sterile water. […] To thoroughly lyse the worms, 5 cycles of freezing and thawing were performed in a water bath at 37° C., followed by a 1-min sonication. The samples were then centrifuged and the supernatant tested for protein estimation and GSH quantification. Total GSH, GSSG, and GSH/GSSG ratios were quantified using the GSH/GSSG-Glo assay kit (Promega) following the instructions of the manufacturer. Briefly, each sample was tested in triplicate in 96-well culture plates with total glutathione or GSSG lysis reagent, for total glutathione or GSSG measurement, respectively. The GSH probe, luciferin-NT, was converted to luciferin, which is coupled to a firefly luciferase. The plates were then read in an […] plate reader (Perkin Elmer, United States). The GSSG value was subtracted from the total glutathione to calculate GSH levels and GSH/GSSG ratio. Four biological replicates were analyzed for each condition.
# [4] = system: gox-1, ghpr-1, gcst-1, mel-32 and gcs-1 genes; test: Quantitative real-time PCR of glycolate pathway genes; type: in vivo, C. elegans
# Method: The differential expression of F41E6.5 (gox-1), C31C9.2 (ghpr-1), gcst-1, mel-32 and gcs-1 genes was measured using qRT-PCR. ˜5000 L1 N2 worms were exposed to each condition for 3 days at 15° Cas described above and then washed three times with H2O. Total RNA was isolated using the RNeasy Mini Kit (Qiagen) and equal amounts of all samples were reverse transcribed with SuperScript Ill (Invitrogen) using oligo(dT) 12-18 primers. cDNA quality was tested using standard PCR. qRT-PCR was performed using pre-designed TaqMan Gene Expression Assay (ThermoFischer Scientific) with at least three samples in triplicates. For the relative quantification of gene expression levels, the 2^−ΔΔCT method and results were normalized to the expression level of the cdc-42 gene. Expression levels were averaged over technical and biological replicates, […]
# [5] = system: living organism treated with Paraquat (PQ2+); conditions: cited from earlier work
compound,measurement,setting,value
"O=C(O)CO [GA, glycolic acid]",Mitochondrial membrane potential (MMP),[1],prevented this effect
same,Growth,[2],able to restore both traits
same,GSH/GSSG ratio,"[3]; H2O2+GA, control 107.5",77.4
same,Total glutathione,"[3]; H2O2 in the presence of GA (10 mM), 3 days",91 % of the control
same,Oxidized form of glutathione (GSSG),[3]; H2O2 with addition of GA,140 % of the control
same,"Total glutathione, effect of GA addition","[3]; peroxide-treated ghpr-1 and ghpr-1, gox-1, ldh-1 mutant strains",unaffected
same,"Increase in GSSG, rescue by GA",[3]; peroxide-treated ghpr-1 and triple mutants co-incubated with GA,not rescued
same,"Expression of gox-1, ghpr-1, mel-32 and gcs-1",[4]; glycolate supplementation,moderately induced
same,Expression of gcst-1,[4]; peroxide or glycolate supplementation,not significantly altered
same,Animal growth,[5]; PQ2+ exposure,unable to restore
same,OCR (Oxygen consumption Rate),[5]; PQ2+ exposure,unable to restore
same,Mitochondrial membrane potential,[5]; Paraquat (PQ2+) treated,can restore
